Here are results for three compounds from patent publication US12083084B2, “Method for enhancing energy production and metabolism in cells” (REPLICON HEALTH OY, priority 2013, dated 2024).

Holding throughout (format): cell-based
For data set [1], the system named is primary human hepatocytes. The data set can be described thus: Cell viability by LDH release (CytoTox-One) in primary human hepatocytes. Particulars: for viability compared to 0 dose (in words): primary human hepatocytes, standard treatment, moderate metabolic stress. How it is done:
(§1) Primary human hepatocytes were purchased from Celsis In Vitro Technologies (1450 South Rolling Road Baltimore, MD 21227, USA). […] According to the information provided by the Celsis, hepatocytes from each donor should have at least 70% viability and more than 5 million viable cells. The medium for the culture of hepatocytes was provided by Celsis. They were InVitroGRO CP (for plating) medium (Z99029) and InVitroGRO HI (for incubation) medium (Z99009). Antibiotics (Torpedo Antibiotics Mix, Z990007) were also from Celsis. The thaw, plating and culture of cells were carried out according to the instruction provided by the Celsis In Vitro Technologies.
(§2) For the measurement of cell viability after treatment of test compound, CytoTox-One Homogeneous Membrane Integrity Assay kit (Promega, G7891) was used. The CytoTox-One Assay is a rapid fluorescent measure of the release of lactate dehydrogenase (LDH) from cells with a damaged membrane. The number of […] cells correlates to the fluorescence intensity determined by a fluorescence plate reader (Hidex Chameleon V multiplate reader, Hidex Oy, Turku, Finland) with excitation 544 nm and emission 590 nm. For the measurement of cellular reactive oxygen species (ROS), DCFDA Cellular ROS Detection Assay Kit from Abcam (ab113851) was used. Reactive oxygen species (ROS) assay kit (ab113851) uses the cell permeant reagent 2′,7′-dichlorofluorescein diacetate (DCFDA), a fluorogenic dye that measures hydroxyl, peroxyl and other ROS activity with the cell. The activity of ROS was measured by a fluorescence plate reader (Hidex) with excitation/emission wavelengths of 485 nm/535 nm.
(§3) The culture of primary hepatocytes was carried out based on the instructions provided by Celsis. After thawing, the cells were suspended in InVitroGRO CP medium. Thereafter the viability of cells was determined using the Trypan Blue exclusion method. Then the concentration of cells was adjusted using InVitroGRO CP medium, so about 30000-35000 cells/100 μl/well can be seeded in collagen I coated 96 well plate (BD, 734-0248).
(§4) After seeding, the cells were cultured overnight in the cell culture incubator (Sanyo MCO 18) at atmosphere of 95% air, 5% CO2 at 37° C. Thereafter, the culture medium for the cells was changed to InVitroGRO Hi (Hi Medium) containing test compound (D-glyceric acid calcium salt dehydrate) at the concentrations of 0, 0.2, 2 and 20 μg/ml (study 1, Table 1.1.1) and 0, 0.4, 2 and 10 μg/ml (study 2, Table 1.1.2).
(§5) After 24 h (in study 1) and 20 h (in studies 2-4) incubation medium was renewed. Second renewal of the incubation medium occurred at 48 h in study 1 and at 40 h in other studies. ROS and LDH were measured after 1.5-2 hours after last change of the medium, i.e. in a situation with moderate metabolic stress.
The measurement of LDH from medium (leaked LDH) and from cell and medium (total LDH) was carried out according to the instruction provided by the Promega (G7891). The plate was incubated at an incubator to achieve a temperature of 22° C. Thereafter, equal volume of CytoTox-ONE Reagent to cell culture medium (100 μl) was added to each well and mix for 30 seconds. Then they were incubated for 10 min at 22° C., and then 50 μl of Stop Solution was added to each well. After gentle mixing, the fluorescence signal was measured at an excitation wavelength of 560 nm and emission wavelength of 590 nm using the Hidex Chameleon V multiplate reader (Hidex Oy, Turku, Finland).
For the total LDH measurement, all the steps are same except a 2 μl of Lysis Solution (per 100 μl original volume) will be added to the each well to lyse the cells before CytoTox-ONE Reagents will be added.
For the LDH and ROS assays, individual values of each measurement were stored and average value of fluorescence signals of various repeats of each treatment at studied time point were calculated and compared. […] Viability (LDH) measurements contained 4-6 repeats depending on the study. […]
(In general: LDH in the medium is a marker of cell lysis.)

Data set [2] deals with primary human hepatocytes. Kind of data set: Cellular ROS detection (DCFDA) in primary human hepatocytes. Particulars: primary human hepatocytes, moderate metabolic stress (1.5-2 h after change of medium). How it is done:
as §1, §2, §3, §4
In study 3 also LGA and HPA were tested and compared to DGA (see FIGS. 11c and 11d) with same doses as in study 2.
In studies 2-4 additional diet with 0.75 mM of palmitic acid (“fatty acid diet”) was added to Hi Medium. Hi Medium in itself contains ample amounts of glucose and fructose and other necessary ingredients for keeping viability of the cell culture at optimal level.
as §5
The measurement of cellular reactive oxygen species (ROS) was carried out according to the instruction of Abcam (ab113851). At the end of treatment time point, culture medium was taken away for leaked LDH measurement and cells were washed with 100 μl/well PBS once. Thereafter 100 μl/well of DCDA mix was added and incubated for 45 min at 37° C. in the dark. Then cells were washed once with 1× buffer solution. The fluorescence signal was measured at an excitation wavelength of 485 nm and emission wavelength of 535 nm using the Hidex Chameleon V multiplate reader (Hidex Oy, Turku, Finland).
For the LDH and ROS assays, individual values of each measurement were stored and average value of fluorescence signals of various repeats of each treatment at studied time point were calculated and compared. […]

Data set [3] deals with human hepatocytes. The data set can be described thus: Gene expression from hepatocytes lysates. Particulars: donor three, N = 5; 14 (μM).
In data set [4] the test system is human primary hepatocytes. Kind of data set: NAD+/NADH quantification in human hepatocytes. More on the design: NADtot / NADH / NAD+ / NAD+/NADH: unit not given here. Particulars: donor alpha, new nutrition at 48 h, N = 5; 14 (μM); 48 h + 3 h. From the text:
For the measurement of total NAD (NADtot=NADH+NAD^+) and NAD^+/NADH ratio, a NAD^+/NADH Quantification kit (MAK037) from Sigma was used. NAD functions as an electron carrier, fluctuating between the oxidized (NAD^+) and reduced (NADH) forms. In addition, NAD^+ plays critical roles in ADP-ribosylation reaction and as a substrate for sirtuins. According to the Sigma instruction, the NAD^+/NADH Quantification kit (Sigma) provides a convenient tool for sensitive detection of NAD, NADH and their ratio without requirement to purify them from samples. Important to notice is that the kit measures NADH and NAD^+ in whole cell including all cell organelles and compartments. Mitochondrial matrix is clearly dominant NADH producer from TCA and beta oxidation (consuming naturally the same amount of NAD^+ in redox reactions). Importantly, formed NADH is also typically oxidized into NAD^+ in the matrix by Complex I in ETC. As is well known anaerobic carbohydrate metabolism, i.e. glycolysis, in cytosol also consumes NAD^+ and produces NADH.
Cell culture in NADH-tests was like in Example 1.1. The change of the medium with DGAcs was conducted at 0 h, 24 h and 48 h. NAD measurements were made at 48+3 h in all cases. For CDP also HPA was tested, and for DOO no new nutrition at 48 h was added, i.e. test was conducted in fasting conditions.

“Also recorded” adds a separate entry of the source.

For `O=C(O)[C@@H](O)CO` [LGA, L-glyceric acid], the “viability compared to 0 dose (in words)” value in data set [1] was “modestly increase the viability”. In addition, in data set [2], the “ROS compared to 0 dose/control (in words)” value is reported as “decrease ROS levels significantly”.

For `O=C(O)C(=O)CO` [HPA, hydroxypyruvate], in data set [3], the “CYP2B6 gene expression deviation from control” value is on record as 7%, the “HO-1 gene expression deviation from control” value amounted to 1% and the “PGC-1a gene expression deviation from control” value is reported as −2%. Further, in data set [1], the “viability compared to 0 dose (in words)” value is “modestly increase the viability”. In addition, in data set [4], the “Change in NAD+/NADH vs. Control” value is given as −47%, the “NAD+” value worked out at 0.010, the “NAD+/NADH” value was found to be 0.045 and the NADH was determined as 0.222. Besides, the NADtot in data set [4] came out at 0.232. Besides, the “ROS compared to 0 dose/control (in words)” value in data set [2] was “decrease ROS levels significantly; also recorded: reduced ROS”.

Turning to trolox [Vitamin E, reference compound], the decrease of viability in data set [1] (donor one, High Medium only, equimolar comparison, 20+20+1.5 h, FIG. 6) is recorded as roughly 23%.
